US20050267182A1, “Urea derivatives as FLT-3 modulators” (Ambit Biosciences Corporation, priority 2003, published 2005)

Assays:
[1] = molecular target: T1, FLT3 (Homo sapiens, UniProt P36888); assay: Binding constant (Kd) measurement, phage-displayed kinase competition binding assay; conditions: for Binding Assay: FLT3(DKIN) / Kd: FLT3(DKIN) construct; for Binding Assay: FLT3(JMminus): FLT3(JMminus) construct
T1 construct: FLT3(DKIN); made in house
T1 sequence (P36888 610-943 limits assumed): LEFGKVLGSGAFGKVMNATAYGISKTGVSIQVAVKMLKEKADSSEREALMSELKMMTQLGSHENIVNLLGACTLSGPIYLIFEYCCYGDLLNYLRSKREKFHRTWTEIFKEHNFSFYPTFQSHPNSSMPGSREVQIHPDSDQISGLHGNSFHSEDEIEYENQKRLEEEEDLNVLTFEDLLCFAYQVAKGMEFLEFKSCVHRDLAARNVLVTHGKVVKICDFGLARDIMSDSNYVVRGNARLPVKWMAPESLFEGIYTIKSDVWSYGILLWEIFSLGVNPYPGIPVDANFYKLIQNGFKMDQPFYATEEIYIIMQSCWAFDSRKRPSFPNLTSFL
Source text: Binding Constant (Kd) Measurements for Small-Molecule-Kinase Interactions
The term “ND” represents non-determined values.

[2] = system: MV4,11 cells; assay: FLT3 assay using MV4,11 cells (cellular proliferation, MTS); assay type: cell-based, human; conditions: cell assay code CS0001
Procedure: The ability of FLT3 kinase inhibitors to inhibit cellular proliferation was also examined. MV4:11 was a cell line derived from a patient with acute myelogenous leukemia.
FLT3 Assay Using MV4,11 Cells
MV4,11 cells were grown in an incubator @ 37° C. in 5% CO2 in Medium 2 (RPMI, 10% FBS, 4 mM glutamine, Penn/Strep). The cells were counted daily and the cell density was kept between 1e5 and 8e5 cells/ml.
Day One: Enough cells were harvested for experiments to be conducted in 50 ml conical tubes. The harvested cells were spun at 500 g for 5 min at 4° C., the supernatant was then aspirated and the cells were resuspended in the starting volume of 1×PBS. The cells were again spun at 500 g for 5 min at 4° C. and the supernatant again aspirated. The cells were then resuspended in medium 3 (DMEM w/ glut, 10% FBS, Penn/Strep) to a density of 4e5 cells/ml and incubated (37° C. in 5% CO2 O/N.
Day Two: The cells were counted and enough medium 3 was added to decrease density to 2e5 cells/ml. 50 ul (10,000 cells) was aliquoted into each well of a 96 well optical plate using multichannel pipetman. The compound plate was then set up by aliquoting 3 μl of negative control (DMSO) into column 1 of a 96 well 300 ul polypropylene plate, aliquoting 3 μt of positive control (10 mM AB20121) into column 12 of plate, and aliquoting 3 μl of appropriate compounds from serial dilutions into columns 2-11. To each well, 150 μl of Medium 3 was added and 50 μl of compound/medium mixture from compound plate into rows of optical plate in duplicate. The cells were then incubated @ 37° C. in 5% CO2 for 3 days.
Day Five: MTS was thawed in a H2O bath. 20 μl of MTS was added to each well of optical plate and the cells were incubated (37° C. in 5% CO2 for 2 hours. The plate was then placed on a plate shaker for 30 seconds on high speed.

Structure (SMILES)	Binding Assay: FLT3(DKIN) [1]	Cell Assay: CS0001:IC50 [2]	Binding Assay: FLT3(JMminus) [1]	Kd [1]
CC1CN(CCOc2ccc(NC(=O)Nc3cc(C(C)(C)C)on3)cc2)CCN1 (centres unmarked) [Compound G46]	+ +	+ +		
CC(C)(C)OC(=O)Nc1ccc(NC(=O)Nc2cc(C(C)(C)C)on2)cc1 [Compound N101]	+ + + +	+ + +		
Cc1ccc(-c2cc(C(=O)Nc3ccc(NC(=O)Nc4cc(C(C)(C)C)on4)cc3)c(C)o2)cc1 [Compound N120]	+ + + +	+ + +		
COc1cc(OC)nc(Oc2ccccc2C(=O)Nc2ccc(NC(=O)Nc3cc(C(C)(C)C)on3)cc2)n1 [Compound N70]		+ +	+ + +	
CC(C)(C)c1cc(NC(=O)Nc2ccc(NC(=O)c3c4ccccc4nc4ccccc34)cc2)no1 [Compound N148]	+ + +	+ +		
CC(C)(C)c1cc(NC(=O)Nc2ccc(NC(=O)C(N)Cc3ccccc3F)cc2)no1 (centres unmarked) [Compound N42]	+ + +	+ +		
CC(C)(C)c1cc(NC(=O)Nc2ccc(NC(=O)c3ncccc3C(N)=O)cc2)no1 [Compound N6]	+ + +	+ +		
CC(C)(C)c1cc(NC(=O)Nc2ccc(OCc3ccc(C(F)(F)F)cc3)cc2)no1 [Compound G6]	+ + + +	+ + +		
CC(C)(C)c1cc(NC(=O)Nc2ccc(OCc3ccc(F)cc3Cl)cc2)no1 [Compound G18]	+ + + +	+ + +		
COc1ccc(C(=O)c2c[nH]c(C(=O)Nc3ccc(NC(=O)Nc4cc(C(C)(C)C)on4)cc3)c2)cc1 [Compound N177]		+ +	+ + +	
C=CCOc1ccc(NC(=O)Nc2cc(C(C)(C)C)no2)cc1 [Compound G32]	+ + + +	+ + + +		
CCOc1ccc(NC(=O)Nc2cc(C(C)(C)C)on2)cc1 [Compound G20]	+ + + +	+ + + +		
CC(=O)c1ccc(NC(=O)Nc2cc(C(C)(C)C)on2)cc1 [Compound A20]	+ + +	+ + +		
Cc1ccc(COc2ccc(NC(=O)Nc3cc(C(C)(C)C)on3)cc2)cc1 [Compound G15]	+ + + +	+ + + +		
COc1cccc(COc2ccc(NC(=O)Nc3cc(C(C)(C)C)on3)cc2)c1 [Compound G13]	+ + + +	+ + + +		
Cc1nnsc1C(=O)Nc1ccc(NC(=O)Nc2cc(C(C)(C)C)on2)cc1 [Compound N18]	+ + +	+ +		
CC(C)(C)c1cc(NC(=O)Nc2ccc(NC(=O)c3csnn3)cc2)no1 [Compound N14]	+ + + +	+ + +		
CC(C)(C)c1cc(NC(=O)Nc2ccc(OCc3ccc(OC(F)(F)F)cc3)cc2)no1 [Compound G5]	+ + + +	+ + +		
CC(C)(C)c1cc(NC(=O)Nc2ccc(NC(=O)C3=Cc4cc(F)cc(S(C)(=O)=O)c4C3)cc2)no1 [Compound N58]	+ + +	+ + +		

Structure (SMILES)	Binding Assay: FLT3(DKIN) [1]	Cell Assay: CS0001:IC50 [2]	Binding Assay: FLT3(JMminus) [1]	Kd [1]
Cc1sc(NC(=O)Nc2ccc(Cl)cc2)c(C(N)=O)c1C [Compound Z58]		+ +		> 10 µM
COc1ccc(-c2noc(-c3ccc(NC(=O)Nc4cc(C(C)(C)C)on4)cc3)n2)c2ccccc12 [Compound P3]	+ + +	+ + +		
COc1cc(OC)nc(C2CCCCC2C(=O)Nc2ccc(NC(=O)Nc3cc(C(C)(C)C)on3)cc2)n1 (centres unmarked) [Compound N129]		+ + +	+ + +	
Cc1cc(NC(=O)[C@](C)(O)CSc2ccc(F)cc2)ccc1NC(=O)Nc1cc(C(C)(C)C)on1 [Compound N170]		+ + +	+ + + +	
Cc1nc(C(=O)Nc2ccc(NC(=O)Nc3cc(C(C)(C)C)on3)cc2)nn1-c1cc(Cl)cc(Cl)c1 [Compound N15]	+ + +	+ +		
COC(=O)c1ccc(C(=O)Nc2ccc(NC(=O)Nc3cc(C(C)(C)C)on3)cc2)nc1 [Compound N12]	+ + + +	+ + +		
CC(C)(C)c1noc(-c2ccc(NC(=S)Nc3cc(C(C)(C)C)on3)cc2)n1 [Compound P6]	+ +	+ + +		
COc1nc(C)cc(C)c1C(=O)Nc1ccc(NC(=O)Nc2cc(C(C)(C)C)on2)cc1 [Compound N22]	+ + + +	+ + +		
CC(C)CCOC(=O)c1nnsc1NC(=O)Nc1ccc(Br)cc1 [Compound Z36]		+ +		> 10 µM
CC(=O)c1c(NC(=O)Nc2ccc(Cl)c(Cl)c2)sc2c1CCCC2 [Compound Z56]		+ + +		> 10 µM
CC(C)(C)c1cc(NC(=O)Nc2ccc(NC(=O)c3cc(Cl)nc(Cl)c3)cc2)no1 [Compound N132]	+ + +	+ + +		
Cc1c(NC(=O)Nc2cc(C(C)(C)C)on2)c(=O)n(-c2ccccc2)n1C [Compound Z45]	+ +			
CN1CN(c2ccc(OCc3ccccc3)cc2)C(=O)N(c2cc(C(C)(C)C)on2)C1 [Compound E4]	+ + +			
Cc1ccc(-n2nc(C(C)(C)C)cc2NC(=O)Nc2ccc(OCc3ccccc3)cc2)cc1 [Compound H5]	+ + + +			
CC(C)(C)c1cc(NC(=O)Nc2ccc(NS(=O)(=O)c3ccccc3)cc2)no1 [Compound V1]	+ +			
CC(C)(C)c1cc(NC(=O)Nc2ccc(OCC(O)CO)cc2)no1 (centres unmarked) [Compound G28]	+ + + +			
CC(C)(C)c1cc(NC(=O)Nc2ccc(S(=O)(=O)Nc3ncccn3)cc2)no1 [Compound V3]				> 10 µM
CC(C)(C)c1cc(NC(=S)Nc2ccc(N3CCOCC3)cc2)no1 [Compound F1, 1-(5-tert-butylisoxazol-3-yl)-3-(4-morpholinophenyl)thiourea]				> 10 µM
COc1ccc(N2CCCN(c3cc(C(C)(C)C)no3)C2=O)cc1 [Compound E5]	+ +			
